These compounds were tested against Survival motor neuron protein (Homo sapiens, UniProt Q16637) (assay: Stabilization of human SMN protein expressed in HEK293 cells expressing SMN2 promoter after 24 hrs by luciferase reporter gene assay).
Sequence of Survival motor neuron protein (Q16637 whole entry): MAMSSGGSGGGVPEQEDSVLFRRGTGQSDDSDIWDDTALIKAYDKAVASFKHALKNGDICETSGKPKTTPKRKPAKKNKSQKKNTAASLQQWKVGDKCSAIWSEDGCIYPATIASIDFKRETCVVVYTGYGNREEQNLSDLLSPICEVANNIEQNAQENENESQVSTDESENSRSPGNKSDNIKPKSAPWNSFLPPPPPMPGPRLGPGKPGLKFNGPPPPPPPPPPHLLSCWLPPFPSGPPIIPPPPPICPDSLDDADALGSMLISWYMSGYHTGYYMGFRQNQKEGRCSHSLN

Structure (SMILES) | EC50 [nM]
CC(C)c1cc(NC(=O)c2ccc(F)c(Cl)c2)on1 | 5500
CC(C)c1cc(C(=O)Nc2nc3ccccc3s2)no1 | 170
Cc1ccccc1NC(=O)c1cc(C(C)C)on1 | 5400
CC(C)c1cc(C(=O)Nc2cccc(F)c2)no1 | 340
CC(C)(C)c1cc(C(=O)Nc2ccc(F)c(Cl)c2)no1 | 1930
Cc1ccc(NC(=O)c2cc(C(C)C)on2)cc1 | 1400
COc1ccccc1NC(=O)c1cc(C(C)C)on1 | 7300
Cc1c(C(=O)Nc2ccc(F)c(Cl)c2)noc1C(C)C | 500
CC(C)c1cc(C(=O)Nc2ccc(Cl)cc2)no1 | 2800
CC(C)c1cc(C(=O)Nc2nc3ccccc3n2C)no1 | 2600
Cc1cccc(NC(=O)c2cc(C(C)C)on2)c1 | 1800
CC(C)c1cc(C(=O)Nc2ccccc2Cl)no1 | 6200
CC(C)c1cc(CNc2ccc(F)c(Cl)c2)no1 | 11200
O=C(Nc1ccc(F)c(Cl)c1)c1cc(Cc2ccccc2)on1 | 3560
CC(C)c1cc(C(=O)Nc2nccs2)no1 | 780
CC(C)c1cc(C(=O)Nc2ccccc2)no1 | 280
CC(C)c1cc(NC(=O)c2ccc(F)c(Cl)c2)no1 | 9900
COc1cccc(NC(=O)c2cc(C(C)C)on2)c1 | 3600
CC(C)c1cc(C(=O)Nc2ccccn2)no1 | 360
CC(C)c1cc(C(=S)Nc2ccc(F)c(Cl)c2)no1 | 13900
CC(C)c1cc(C(=O)N2CCc3ccccc32)no1 | 720
CC(C)c1cc(C(=O)Nc2nc3ccccc3[nH]2)no1 | 260
CC(C)c1cc(C(=O)Nc2cccnc2)no1 [MLS000087329] | 9900
CCc1cc(C(=O)Nc2ccc(F)c(Cl)c2)no1 | 8800
CC(C)c1cc(C(=O)Nc2cccc(Cl)c2)no1 [MLS000087323] | 860
O=C(Nc1ncc(C2CCC2)s1)c1ccc(F)c(Cl)c1 | 500
CC(C)c1cc(C(=O)Nc2ccc(F)cc2)no1 | 1800
CC(C)c1cc(C(=O)Nc2ccccc2F)no1 | 260
CC(C)c1nc(NC(=O)c2ccc(F)c(Cl)c2)cs1 | 1600
CC(C)Cc1cc(C(=O)Nc2ccc(F)c(Cl)c2)no1 | 1500
